According to patent publication US8178506B2, “Oligomeric compounds and compositions for use in modulation of small non-coding RNAs” (Regulus Therapeutics Inc., priority 2003, dated 2012):
In the oligonucleotide strings, read from the 5' end, every base follows the letter of its sugar. An asterisk marks phosphorothioate; unmarked linkages are phosphodiester. Other units and linkages are bracketed, terminal groups are in braces. A string of capitals states the bases alone. e = 2'-O-(2-methoxyethyl) (MOE); [5mC] = 5-methylcytosine

Tested on: mir-15a pri-miRNA
Test: mir-15a pri-miRNA expression in T47D cells (real-time RT-PCR)
Assay type: cell-based, human
Settings: real-time RT-PCR
Text: The gapmer oligomeric compounds targeting the mir-15b and mir-15-a-1 mature miRNAs described above were also transfected into T47D cells according to standard procedures. In addition, uniform 2′-MOE and 2′-MOE gapmer oligomeric compounds targeting the mature mir-15a-1 and mir-15b miRNAs were also transfected into T47D cells, for analysis of their effects on mir-15a-1 and mir-15b pri-miRNA levels. The oligomeric compounds ISIS Number 327927 (SEQ ID NO: 345), a uniform 2′-MOE compound and ISIS Number 345391 (SEQ ID NO: 345), a 2′-MOE 5-10-7 gapmer compound, both target mir-15b. The oligomeric compounds ISIS Number 327951 (SEQ ID NO: 369), a uniform 2′-MOE compound, and ISIS Number 345411 (SEQ ID NO: 369), a 2′-MOE 5-10-7 gapmer compound, both target mir-15a-1. Oligomeric compounds ISIS Number 129686 ([…]; SEQ ID NO: 901), and ISIS Number 129691 ([…]; SEQ ID NO:902), both universal scrambled controls, as well as ISIS Number 116847 ([…]; SEQ ID NO: 844) targeting an unrelated gene, PTEN, were used as negative controls. ISIS Numbers 129686, 129691, and 116847 are phosphorothiated 2′-MOE 5-10-5 gapmers, and all cytosines are 5-methylcytosines. T47D cells (seeded in 12-well plates) were treated with these oligomeric compounds, and RNA was isolated from the treated cells by lysing in 1 mL TRIZOL™ (Invitrogen) and total RNA was prepared using the manufacturer's recommended protocols. To assess the effects of these compounds on expression of the mir-15a or mir-15b pri-miRNA molecules, real-time RT-PCR analysis was performed using either the primer/probe set specific for the mir-15a pri-miRNA molecule described above, or a primer probe set specific for the mir-15b pri-miRNA molecule: ISIS 339320 ([…]; SEQ ID NO: 903) was used as the forward primer for the mir-15b pri-miRNA, ISIS 339321 ([…] ACTGT; SEQ ID NO: 904) was used as the reverse primer for the mir-15b pri-miRNA, and ISIS 339322 ([…]; SEQ ID NO: 905) was used as the probe. Total RNA was quantified using RiboGreen™ RNA quantification reagent (Molecular Probes, Inc. Eugene, Oreg.), expression levels observed for each target were normalized to 5.8S rRNA, and values are expressed relative to the untreated control. Inhibition of expression of the mir15a or mir-15b pri-miRNA molecules upon treatment with these oligomeric compounds is was assessed and expressed as a percentage of RNA levels in untreated control cells.
Using the real-time RT-PCR methods described, the expression levels of the mir-15a pri-miRNA were compared in T47D cells treated with the nested series of uniform 2′-MOE oligomeric compounds, targeting and spanning the entire length of the mir-15a pri-miRNA. The region encompassing the mir-15a primary transcript (the complement of nucleotides 31603159 to 31603468 of GenBank Accession number NT—024524.13; AAATAATTATG […]) is incorporated herein as SEQ ID NO: 906. ISIS Number 356215 (SEQ ID NO: 879) targets a region flanking and immediately 5′ to the predicted 5′ Drosha cleavage site in the mir-15a pri-miRNA. ISIS Number 356218 (SEQ ID NO: 881) targets aregion in the loop of the mir-15a pri-miRNA. ISIS 356227 (SEQ ID NO: 883) targets a region flanking and immediately 3′ to the predicted 3′ Drosha cleavage site in the mir-15a pri-miRNA. Additionally, oligomeric compound ISIS 327951 (SEQ ID NO: 369), a uniform 2′-MOE compound targeting the mature mir-15a-1 miRNA, was tested for comparison. Oligomeric compounds ISIS 327901 (SEQ ID NO: 319) targeting the mature mir-143 miRNA; ISIS 129690, ([…]; SEQ ID NO: 907), a phosphorothioate 5-10-5 MOE gapmer used as a universal scrambled control; and ISIS 116847 ([…]; SEQ ID NO: 844), a uniform 5-10-52′-MOE gapmer targeting an unrelated gene, PTEN, were used as negative controls. Using the transfection methods previously described, T47D cells were treated with 100 nM of each of these oligomeric compounds. […]

| Substance | mir-15a pri-miRNA expression % UTC [% UTC] |
| --- | --- |
| 327901 (antisense eT*eG*eA*eG*e[5mC]*eT*eA*e[5mC]*eA*eG*eT*eG*e[5mC]*eT*eT*e[5mC]*eA*eT*e[5mC]*eT*e[5mC]*eA) [compound 327901] | 132 |
| 327951 (antisense e[5mC]*eA*e[5mC]*eA*eA*eA*e[5mC]*e[5mC]*eA*eT*eT*eA*eT*eG*eT*eG*e[5mC]*eT*eG*e[5mC]*eT*eA) [compound 327951] | 713 |
